Experimental data taken from US12396459B2, “Synergistically effective herbicide composition comprising pyridate and at least one defined 4-HPPD inhibitor” (BELCHIM CROP PROTECTION NV, priority 2018, dated 2025).

How the values were obtained:
Assay type in all cases: in vivo
Anagallis arvensis = experiment: Field trial post-emergence in maize: ANGAR; conditions: 7-14 DAA; # = 2; g a.c./ha: PYR 300, MES 100, PYR + MES 300 + 90
Description: (§1) Herbicidal activity of herbicide compositions according to the first aspect of the present invention with regard to different types of unwanted vegetation was determined during trials performed on test fields (field trials). Individual compositions comprising pyridate and individual compositions comprising a defined 4-HPPD inhibitor are compared with a herbicide composition according to the invention comprising both pyridate and a defined 4-HPPD inhibitor. The expected activity of the combination of the active compounds pyridate and a defined 4-HPPD inhibitor is calculated according to above mentioned calculation method by Colby, in order to evaluate a synergistic effect between pyridate and a defined 4-HPPD inhibitor.
(§2) Herbicidal activity was determined by applying herbicide compositions on emerged unwanted vegetation on fields where maize was cultivated. Pyridate and a defined 4-HPPD inhibitor were applied as a tank mixture by mixing these active compounds prior to use in a spray tank. The corresponding mixture was in the form of a spray liquor. […] At a specified number of days after application (DAA), the degree of damage to the unwanted vegetation is rated in % of plants of unwanted vegetation that were killed, which was assessed by visually controlling the plants.

Brassica napus (winter) = experiment: Field trial post-emergence in maize: BRSNW; conditions: # = 1, g a.c./ha: PYR 300, MES 100, PYR + MES 300 + 90
Description: as §1
(§3) Herbicidal activity was determined by applying herbicide compositions on emerged unwanted vegetation on fields where maize was cultivated. Pyridate and a defined 4-HPPD inhibitor were applied as a tank mixture by mixing these active compounds prior to use in a spray tank. The corresponding mixture was in the form of a spray liquor. Besides, spray liquors of individual compositions comprising pyridate and of individual compositions comprising a defined 4-HPPD inhibitor were used. Test plants of unwanted vegetation with a growth stage corresponding to BBCH 10-18 (according to the extended BBCH-scale) were sprayed with the active compound preparations such that particular desired amounts of active compounds are applied per unit area. Spray liquor was diluted with water to arrive at an application volume of 50 to 450 L/ha. At a specified number of days after application (DAA), the degree of damage to the unwanted vegetation is rated in % of plants of unwanted vegetation that were killed, which was assessed by visually controlling the plants.

Digitaria sanguinalis = experiment: Field trial post-emergence in maize: DIGSA; conditions: g a.c./ha: PYR 300, MES 100, PYR + MES 300 + 90
Description: as §1, §3

Galinsoga parviflora = experiment: Field trial post-emergence in maize: GASPA; conditions: 31-48 DAA; # = 3; g a.c./ha: PYR 300, MES 100, PYR + MES 300 + 90
Description: as §1, §2

Hibiscus ternatus = experiment: Field trial post-emergence in maize: HIBTR; conditions: 7-14 DAA; # = 2; g a.c./ha: PYR 300, MES 100, PYR + MES 300 + 90
Description: as §1, §2

[1] = test system: Tripleurospermum inodorum; experiment: Field trial post-emergence in maize: MATIN; conditions: for herbicidal effect (h.e.): # = 1, g a.c./ha: PYR 300, MES 100, PYR + MES 300 + 90
Description: as §1, §3

Persicaria maculosa = experiment: Field trial post-emergence in maize: POLPE; conditions: for herbicidal effect (h.e.): g a.c./ha: PYR 300, MES 100, PYR + MES 300 + 90
Description: as §1, §3

Portulaca oleracea = experiment: Field trial post-emergence in maize: POROL; conditions: # = 1, g a.c./ha: PYR 300, MES 100, PYR + MES 300 + 90
Description: as §1, §3

Solanum nigrum = experiment: Field trial post-emergence in maize: SOLNI; conditions: for herbicidal effect (h.e.): g a.c./ha: PYR 300, MES 100, PYR + MES 300 + 90
Description: as §1, §3

Sorghum halepense = experiment: Field trial post-emergence in maize: SORHA; conditions: 7-14 DAA; # = 1; g a.c./ha: PYR 300, MES 100, PYR + MES 300 + 90
Description: as §1, §2

Stellaria media = experiment: Field trial post-emergence in maize: STEME
Description: as §1, §3

Thlaspi arvense = experiment: Field trial post-emergence in maize: THLAR; conditions: # = 1, g a.c./ha: PYR 300, MES 100, PYR + MES 300 + 90
Description: as §1, §3

[2] = test system: Brassica rapa Canola cultivars; experiment: Field trial post-emergence in maize: BRSRC; conditions: 13-14 DAA; # = 1; g a.c./ha: PYR 450, MES 144, PYR + MES 450 + 144
Description: as §1, §3

Veronica persica = experiment: Examples 6-8 herbicidal effect: VERPE; conditions: 7 DAA
Echinochloa crus-galli = experiment: Examples 6-8 herbicidal effect: ECHCG; conditions: 7 DAA
Poa annua = experiment: Examples 6-8 herbicidal effect: POAAN; conditions: 7 DAA
Lamium purpureum = experiment: Field trial post-emergence in maize: LAMPU
Description: as §1, §3
(§4) Example 1 concerns a herbicide composition comprising a combination of pyridate and mesotrione, which was applied post-emergence on unwanted vegetation on a field where maize was cultivated, according to the test conditions mentioned above.

Matricaria chamomilla = experiment: Field trial post-emergence in maize: MATCH
Description: as §1, §3, §4

Setaria viridis = experiment: Field trial post-emergence in maize: SETVI
Description: as §1, §3, §4

[3] = g a.c./ha: MES 50, PYR + SMO 300 + 800
[4] = g a.c./ha: MES 80, PYR + MES 300 + 50

## CS(=O)(=O)c1ccc(C(=O)C2C(=O)CCCC2=O)c([N+](=O)[O-])c1 [MES, 2-(4-methylsulfonyl-2-nitrobenzoyl) cyclohexane-1,3-dione]
Anagallis arvensis
  herbicidal effect (h.e.): 98%
Brassica napus (winter); 7-14 DAA
  herbicidal effect (h.e.): 98%
Brassica napus (winter); 18-28 DAA
  herbicidal effect (h.e.): 99%
Digitaria sanguinalis; 7-14 DAA, # = 2
  herbicidal effect (h.e.): 53%
Digitaria sanguinalis; 18-28 DAA, # = 2
  herbicidal effect (h.e.): 47%
Digitaria sanguinalis; 31-48 DAA, # = 1
  herbicidal effect (h.e.): 54%
Galinsoga parviflora
  herbicidal effect (h.e.): 97%
Hibiscus ternatus
  herbicidal effect (h.e.): 62%
[1]; 7-14 DAA
  herbicidal effect (h.e.): 77%
[1]; 18-28 DAA
  herbicidal effect (h.e.): 78%
[1]; 31-48 DAA
  herbicidal effect (h.e.): 80%
[1]; MATIN 24-31 DAA 45 g a.c./ha
  MES h.e.: 80%
Persicaria maculosa; 7-14 DAA, # = 3
  herbicidal effect (h.e.): 91%
Persicaria maculosa; 31-48 DAA, # = 4
  herbicidal effect (h.e.): 89%
Persicaria maculosa; POLPE 14-20 DAA 45 g a.c./ha
  MES h.e.: 83%
Persicaria maculosa; POLPE 14-20 DAA 90 g a.c./ha
  MES h.e.: 98%
Persicaria maculosa; POLPE 14-20 DAA 135 g a.c./ha
  MES h.e.: 98%
Persicaria maculosa; POLPE 24-31 DAA 45 g a.c./ha
  MES h.e.: 93%
Portulaca oleracea; 7-14 DAA
  herbicidal effect (h.e.): 50%
Portulaca oleracea; 18-28 DAA
  herbicidal effect (h.e.): 5%
Solanum nigrum; 18-28 DAA, # = 7
  herbicidal effect (h.e.): 91%
Solanum nigrum; 31-48 DAA, # = 6
  herbicidal effect (h.e.): 93%
Solanum nigrum; SOLNI 14-20 DAA 45 g a.c./ha
  MES h.e.: 95%
Sorghum halepense
  herbicidal effect (h.e.): 42%
Stellaria media; 18-28 DAA, # = 4, g a.c./ha: PYR 300, MES 100, PYR + MES 300 + 90
  herbicidal effect (h.e.): 98%
Stellaria media; STEME 14-20 DAA 45 g a.c./ha
  MES h.e.: 78%
Stellaria media; STEME 14-20 DAA 90 g a.c./ha
  MES h.e.: 93%
Stellaria media; STEME 14-20 DAA 135 g a.c./ha
  MES h.e.: 93%
Stellaria media; STEME 24-31 DAA 45 g a.c./ha
  MES h.e.: 70%
Stellaria media; STEME 24-31 DAA 90 g a.c./ha
  MES h.e.: 87%
Stellaria media; STEME 24-31 DAA 135 g a.c./ha
  MES h.e.: 93%
Thlaspi arvense; 7-14 DAA
  herbicidal effect (h.e.): 76%
Thlaspi arvense; 18-28 DAA
  herbicidal effect (h.e.): 97%
[2]
  herbicidal effect (h.e.): 88%
Veronica persica; [3]
  herbicidal effect (h.e.): 33%
Veronica persica; [4]
  herbicidal effect (h.e.): 57%
Echinochloa crus-galli; [3]
  herbicidal effect (h.e.): 70%
Echinochloa crus-galli; [4]
  herbicidal effect (h.e.): 73%
Poa annua; [3]
  herbicidal effect (h.e.): 0%
Poa annua; [4]
  herbicidal effect (h.e.): 3%
Lamium purpureum; LAMPU 14-20 DAA 45 g a.c./ha
  MES h.e.: 93%
Lamium purpureum; LAMPU 14-20 DAA 90 g a.c./ha
  MES h.e.: 98%
Lamium purpureum; LAMPU 14-20 DAA 135 g a.c./ha
  MES h.e.: 99%
Lamium purpureum; LAMPU 24-31 DAA 45 g a.c./ha
  MES h.e.: 89%
Lamium purpureum; LAMPU 24-31 DAA 90 g a.c./ha
  MES h.e.: 95%
Matricaria chamomilla; MATCH 14-20 DAA 45 g a.c./ha
  MES h.e.: 53%
Matricaria chamomilla; MATCH 14-20 DAA 90 g a.c./ha
  MES h.e.: 72%
Matricaria chamomilla; MATCH 14-20 DAA 135 g a.c./ha
  MES h.e.: 81%
Matricaria chamomilla; MATCH 24-31 DAA 45 g a.c./ha
  MES h.e.: 43%
Matricaria chamomilla; MATCH 24-31 DAA 90 g a.c./ha
  MES h.e.: 77%
Matricaria chamomilla; MATCH 24-31 DAA 135 g a.c./ha
  MES h.e.: 93%
Setaria viridis; SETVI 14-20 DAA 45 g a.c./ha
  MES h.e.: 83%
Setaria viridis; SETVI 14-20 DAA 90 g a.c./ha
  MES h.e.: 92%
Setaria viridis; SETVI 14-20 DAA 135 g a.c./ha
  MES h.e.: 95%
Setaria viridis; SETVI 24-31 DAA 45 g a.c./ha
  MES h.e.: 72%
Setaria viridis; SETVI 24-31 DAA 90 g a.c./ha
  MES h.e.: 92%
Setaria viridis; SETVI 24-31 DAA 135 g a.c./ha
  MES h.e.: 95%
